# According to ChEMBL document CHEMBL1201862, “PubChem BioAssay data set” (2004):
# Counter-ions that a name gives are not always drawn. The source made the active and inactive calls.
# Experiments:
# [1] = intracellular Trypanosoma cruzi inhibitors in host cells – cell-based, plate reader, cherry-pick samples, set 3, dose response (AID 651818); format: functional;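 note: compounds incubated with infected cells for about four days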
# [2] = target: Voltage-gated inwardly rectifying potassium channel KCNH2 (Homo sapiens, UniProt Q12809); settings: Potency;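 note: confirmatory quantitative high-throughput screen measuring inhibition of hERG channel activity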
# Voltage-gated inwardly rectifying potassium channel KCNH2, sequence (Q12809 whole entry): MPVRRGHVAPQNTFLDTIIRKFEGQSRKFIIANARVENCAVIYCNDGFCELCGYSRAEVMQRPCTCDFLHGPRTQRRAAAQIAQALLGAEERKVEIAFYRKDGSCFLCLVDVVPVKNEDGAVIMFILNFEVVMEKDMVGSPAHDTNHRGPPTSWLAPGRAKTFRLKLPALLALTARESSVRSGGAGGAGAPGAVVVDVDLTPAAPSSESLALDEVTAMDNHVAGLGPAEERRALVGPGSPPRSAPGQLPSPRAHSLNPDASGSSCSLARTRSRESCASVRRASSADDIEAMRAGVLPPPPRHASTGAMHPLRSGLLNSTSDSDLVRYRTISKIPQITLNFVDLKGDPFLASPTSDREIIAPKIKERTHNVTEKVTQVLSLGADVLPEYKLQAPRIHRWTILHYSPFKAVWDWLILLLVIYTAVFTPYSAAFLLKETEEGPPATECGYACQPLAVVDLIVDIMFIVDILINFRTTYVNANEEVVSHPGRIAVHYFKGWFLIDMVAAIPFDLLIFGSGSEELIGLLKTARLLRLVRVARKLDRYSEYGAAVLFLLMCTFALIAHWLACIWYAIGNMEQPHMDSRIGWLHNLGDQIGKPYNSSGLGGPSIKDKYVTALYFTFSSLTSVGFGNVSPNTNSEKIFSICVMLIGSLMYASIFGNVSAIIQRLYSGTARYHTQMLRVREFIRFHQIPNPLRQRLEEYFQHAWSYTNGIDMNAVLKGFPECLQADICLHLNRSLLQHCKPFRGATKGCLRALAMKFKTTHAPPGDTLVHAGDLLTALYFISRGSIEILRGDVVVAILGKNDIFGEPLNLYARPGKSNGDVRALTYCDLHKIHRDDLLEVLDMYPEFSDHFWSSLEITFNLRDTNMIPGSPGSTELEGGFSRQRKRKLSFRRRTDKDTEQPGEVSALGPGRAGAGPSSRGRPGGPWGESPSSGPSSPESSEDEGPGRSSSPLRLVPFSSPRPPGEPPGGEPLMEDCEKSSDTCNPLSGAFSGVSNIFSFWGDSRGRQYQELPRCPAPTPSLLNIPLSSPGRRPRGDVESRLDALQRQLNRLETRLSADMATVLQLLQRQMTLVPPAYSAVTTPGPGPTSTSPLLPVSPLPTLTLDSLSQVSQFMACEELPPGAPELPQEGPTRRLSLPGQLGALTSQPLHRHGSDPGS
# [3] = HEK-293T cell viability reduction – luminescence, B-cell screen hits, cytotoxicity control for BCR NF-kB inhibitor project, dose response (AID 489021); format: functional, cell-based;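 note: HEK-293T cells carrying an NF-kB luciferase reporter; cells exposed to compound for about 14 hours before viability readout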
# [4] = target: T1, Ubiquitin-conjugating enzyme E2 N (Homo sapiens, UniProt P61088); format: functional;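 note: Dose-response confirmation in a TR-FRET assay detecting UBC13-driven polyubiquitin chain formation, inhibition measured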
# T1 sequence (P61088 whole entry): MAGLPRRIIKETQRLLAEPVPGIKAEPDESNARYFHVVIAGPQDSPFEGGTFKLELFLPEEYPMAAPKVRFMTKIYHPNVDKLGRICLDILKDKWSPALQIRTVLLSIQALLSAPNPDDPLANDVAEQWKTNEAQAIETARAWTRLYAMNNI
# [5] = HIV-1 AD8 envelope cell-cell fusion blockers – cherry-pick, dose response (AID 652062); format: functional, cell-based;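 note: luciferase signal from cell-cell fusion driven by HIV-1 clade B AD8 Env; potency is for inhibitors of fusion seen as a drop in luminescence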
# [6] = blockers of HIV-1 ZM109 envelope-driven cell-cell fusion – HeLa effector, CEM target cells, luciferase, cherry-pick, dose response (AID 652058); format: functional, cell-based;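 note: luciferase signal from HIV-1 Env mediated cell-cell fusion of effector and target cells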
# [7] = blockers of HIV-1 envelope-mediated cell-cell fusion – cherry-pick, dose response (AID 652057); format: functional, cell-based
# HEK293 = experiment: EBV LMP1 TES2 canonical NF-kB signalling blockers – cell-based, HEK293, luciferase, cherry-pick, dose response (AID 588343); format: functional; settings: Homo sapiens
# [8] = target: T2, Microphthalmia-associated transcription factor (Homo sapiens, UniProt O75030); experiment: reducers of TRPM1 reporter luminescence, concentration series – cell-based, SK-MEL-5, cherry-picked, set 3, MITF inhibitor project, dose response (AID 493073); format: functional;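 note: SK-MEL-5 melanoma cells with luciferase driven by the MITF target TRPM1 promoter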
# T2 sequence (O75030 whole entry): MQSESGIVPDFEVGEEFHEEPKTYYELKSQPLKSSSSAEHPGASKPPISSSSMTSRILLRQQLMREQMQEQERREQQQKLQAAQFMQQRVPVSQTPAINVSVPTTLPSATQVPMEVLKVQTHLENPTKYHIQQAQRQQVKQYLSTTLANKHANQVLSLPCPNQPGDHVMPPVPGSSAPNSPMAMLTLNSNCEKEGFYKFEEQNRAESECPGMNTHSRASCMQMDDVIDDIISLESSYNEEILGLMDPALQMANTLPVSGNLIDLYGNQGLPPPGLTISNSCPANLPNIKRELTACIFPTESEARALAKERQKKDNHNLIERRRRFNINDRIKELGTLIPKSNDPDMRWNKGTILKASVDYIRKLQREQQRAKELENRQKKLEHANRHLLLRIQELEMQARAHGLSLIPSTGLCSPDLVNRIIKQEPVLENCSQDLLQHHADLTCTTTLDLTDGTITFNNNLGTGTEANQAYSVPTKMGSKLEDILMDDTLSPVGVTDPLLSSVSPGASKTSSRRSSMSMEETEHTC
# [9] = viability of uninfected HEp-2 cells – cell-based, HTS, cytotoxicity control for RSV inhibitor project, dose response (AID 2410); format: functional; settings: human respiratory syncytial virus
# [10] = target: Heat shock protein HSP 90-alpha (Homo sapiens, UniProt P07900); format: functional, organism-based
# [11] = Luminescence Cell-Based Dose Retest to Confirm Inhibitors of Cancer Stem Cells. [Related pubchem assays (depositor defined):AID2717, AID2721]; format: functional; settings: Homo sapiens
# Albumin = Albumin (Bos taurus, UniProt P02769); experiment: Counterscreen for inhibitors of T-cell receptor (TCR)-CD3 interaction: Fluorescence-based biochemical high throughput dose response assay to identify inhibitors of T-cell receptor (TCR)-CD3 interaction using a TAMRA-labeled BSA probe.; format: functional
# Albumin, sequence (P02769 whole entry): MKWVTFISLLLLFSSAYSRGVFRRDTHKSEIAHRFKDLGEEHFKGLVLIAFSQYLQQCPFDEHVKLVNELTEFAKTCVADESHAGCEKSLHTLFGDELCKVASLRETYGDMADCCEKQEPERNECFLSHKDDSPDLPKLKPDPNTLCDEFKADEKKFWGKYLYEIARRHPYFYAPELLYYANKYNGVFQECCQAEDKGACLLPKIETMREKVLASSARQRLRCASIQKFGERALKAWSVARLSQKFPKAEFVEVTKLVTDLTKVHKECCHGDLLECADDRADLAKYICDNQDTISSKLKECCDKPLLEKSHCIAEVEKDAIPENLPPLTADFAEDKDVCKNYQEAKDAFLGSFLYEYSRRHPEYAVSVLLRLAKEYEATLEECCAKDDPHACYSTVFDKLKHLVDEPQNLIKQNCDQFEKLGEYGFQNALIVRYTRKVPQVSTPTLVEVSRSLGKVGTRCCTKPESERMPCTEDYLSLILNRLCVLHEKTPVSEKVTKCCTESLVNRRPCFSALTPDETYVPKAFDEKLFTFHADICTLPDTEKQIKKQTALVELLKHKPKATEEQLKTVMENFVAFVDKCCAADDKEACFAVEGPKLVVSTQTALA
# Paired box protein Pax-8 = Paired box protein Pax-8 (Homo sapiens, UniProt Q06710); experiment: PAX8 transcriptional activity inhibition in RMG-I – RMG-I cells, luciferase, cherry-pick, dose response (AID 687027); format: functional, cell-based;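 note: luciferase reporter driven by Pax8 target thyroperoxidase promoter measured by SteadyGlo luminescence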
# Paired box protein Pax-8, sequence (Q06710 whole entry): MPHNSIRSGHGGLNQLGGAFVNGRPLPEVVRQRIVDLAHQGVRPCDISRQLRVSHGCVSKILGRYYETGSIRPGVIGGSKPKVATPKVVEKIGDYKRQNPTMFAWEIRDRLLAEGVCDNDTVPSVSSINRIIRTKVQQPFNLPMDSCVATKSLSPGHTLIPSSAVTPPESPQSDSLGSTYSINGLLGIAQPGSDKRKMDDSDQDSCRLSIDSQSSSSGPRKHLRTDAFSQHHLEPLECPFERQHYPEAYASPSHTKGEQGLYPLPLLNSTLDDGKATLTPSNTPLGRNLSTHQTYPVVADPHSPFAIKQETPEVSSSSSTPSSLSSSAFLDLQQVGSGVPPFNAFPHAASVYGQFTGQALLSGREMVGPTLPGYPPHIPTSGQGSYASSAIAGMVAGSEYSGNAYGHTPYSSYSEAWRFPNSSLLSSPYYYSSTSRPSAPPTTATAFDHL
# INS1 = experiment: INS-1E survival protection against cytokine death – cell-based, luminescence, retest, dose response (AID 449756); format: functional; settings: Rattus norvegicus;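 note: cell death triggered by IL-1 beta plus TNF-alpha plus IFN-gamma mixture; protective hits raise ATP signal compared with cytokine alone wells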
# [12] = loss of viability in HepG2 cells – cell-based, CellTiter-Glo, cherry-picked, cytotoxicity control for Shn3 inhibitor project, dose response (AID 624134); format: functional
# [13] = non-specific 3'UTR reporter inhibition in Clone20-Shn3RL – cell-based, Renilla luciferase, cherry-picked, counter-screen for Shn3 inhibitor project, dose response (AID 624133); format: functional
# H9c2 = experiment: cells; format: functional, cell-based; settings: Rattus norvegicus, H9c2, Myocardium;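 note: confirmatory concentration-response retest of ultra-high-throughput screening hits for modulation of myocardial damage; cell death induced by hydrogen peroxide oxidative stress; compound pretreatment for 60 min then peroxide exposure for 2 h; potency is for protecting the cells against peroxide damage rather than for killing them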
# [14] = Trypanosoma cruzi growth suppression in host cells – NIH3T3 host cells, beta-gal luminescence, confirmation (AID 2044); format: functional, cell-based;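 note: intracellular parasites grown in NIH/3T3 mouse fibroblasts as host cells; luminescent beta-galactosidase reporter signal from transgenic T. cruzi replicating inside host cells; inhibitors lower the luminescence signal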
# [15] = NIH3T3 cell viability loss – ATP luminescence, mouse fibroblasts, counter-screen, dose response (AID 2010); format: functional, cell-based;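 note: cells exposed to compound for about 90 hours before reading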
# cells [16] = format: functional, cell-based
# Nonstructural protein 1 = Nonstructural protein 1 (Influenza A virus, UniProt Q194T2); format: functional, Influenza A virus (A/California/07/2009(H1N1))
# Nonstructural protein 1, sequence (Q194T2 whole entry): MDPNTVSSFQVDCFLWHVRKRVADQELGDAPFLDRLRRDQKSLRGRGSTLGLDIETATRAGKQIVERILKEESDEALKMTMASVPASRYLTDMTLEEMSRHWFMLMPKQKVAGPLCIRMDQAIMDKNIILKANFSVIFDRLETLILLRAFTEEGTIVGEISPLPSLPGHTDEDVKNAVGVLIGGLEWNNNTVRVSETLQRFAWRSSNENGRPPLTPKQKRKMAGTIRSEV
# cells [17] = format: functional, cell-based; remark: listed apart in the source
# [18] = reduction of Shn3 3'UTR-driven luciferase in osteoblasts – cell-based, Clone20 osteoblasts, firefly luciferase, cherry-picked, dose response (AID 624132); format: functional;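 note: firefly luciferase luminescence from reporter carrying the Shn3 3'UTR in osteoblasts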
# [19] = target: T3, Heat shock factor protein 1 (Mus musculus, UniProt P38532); experiment: decrease of HSF1-responsive luciferase luminescence – cell-based, NIH3T3, dose retest, confirmation (AID 2382); format: functional;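 note: NIH3T3 fibroblasts with HSF1-driven luciferase reporter stressed by proteasome inhibitor MG132; luminescence from HSF1-driven luciferase expression after 8 hours of MG132 stress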
# T3 sequence (P38532 whole entry): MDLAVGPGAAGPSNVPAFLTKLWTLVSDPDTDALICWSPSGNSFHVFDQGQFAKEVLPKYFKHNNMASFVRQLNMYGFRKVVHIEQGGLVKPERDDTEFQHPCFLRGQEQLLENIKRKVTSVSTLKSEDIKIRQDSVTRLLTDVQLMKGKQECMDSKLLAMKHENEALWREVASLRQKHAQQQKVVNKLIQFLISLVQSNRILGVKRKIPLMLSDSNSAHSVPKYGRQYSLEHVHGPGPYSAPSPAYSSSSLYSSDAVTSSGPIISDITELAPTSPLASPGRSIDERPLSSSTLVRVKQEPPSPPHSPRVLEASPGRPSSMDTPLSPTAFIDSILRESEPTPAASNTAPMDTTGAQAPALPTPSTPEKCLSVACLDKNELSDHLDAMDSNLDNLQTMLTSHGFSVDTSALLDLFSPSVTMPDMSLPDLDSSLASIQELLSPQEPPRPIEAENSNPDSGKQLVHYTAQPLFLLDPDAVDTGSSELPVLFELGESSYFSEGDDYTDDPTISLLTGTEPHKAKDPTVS
structure (smiles),measurement,setting,value
C[C@@H]1CN([C@H](C)CO)C(=O)Cc2cc(NC(=O)C3CCCCC3)ccc2O[C@@H]1CN(C)Cc1ccc(C(=O)Nc2ccccc2N)cc1,AC50,[1],3.51 µM (active)
C[C@H]1CN([C@@H](C)CO)C(=O)Cc2cc(NC(=O)Nc3cccc4ccccc34)ccc2O[C@H]1CN(C)Cc1ccc(C(F)(F)F)cc1,AC50,[1],5.49 µM (active)
NCCc1ccc(S(=O)(=O)F)cc1 [4-AMINOETHYLBENZENESULFONYL FLUORIDE HYDROCHLORIDE],AC50,[2],0.251 µM (inconclusive)
C[C@@H]1CCCCO[C@H](CN(C)C(=O)Nc2ccc(C(F)(F)F)cc2)[C@@H](C)CN([C@H](C)CO)C(=O)c2cc(NC(=O)Nc3ccccc3)ccc2O1,AC50,[1],2.02 µM (active)
N#Cc1ccccc1COc1ccc(/C=C/C(=O)O)cc1,IC50,[3],> 80 µM (inactive)
COc1cc(-c2nc3ccc(N4CCN(C)CC4)cc3[nH]2)cc(OC)c1OC,IC50,[3],> 80 µM (inactive)
same,IC50,[4],> 20 µM (inactive)
O=C(C[C@H]1C[C@H]2c3cc(NC(=O)NC4CCCC4)ccc3O[C@H]2[C@@H](CO)O1)NC1CCCCC1,AC50,[5],1.17 µM (active)
same,AC50,[6],24.5 µM (active)
CO[C@H](CN(C)S(=O)(=O)c1ccc(Cl)cc1)[C@H](C)CN([C@@H](C)CO)S(=O)(=O)c1cccc(Cl)c1,AC50,[5],17.6 µM (active)
same,AC50,[6],3.66 µM (active)
same,AC50,[7],3.31 µM (active)
Oc1ccc(C=NNC(=S)Nc2ccccc2)nc1,AC50,HEK293,14.6 µM (active)
CC1CCCCC1NC(=O)/C(C#N)=C/c1ccccc1F (stereo not given),AC50,[8],14.4 µM (active)
same,CC50,[9],21.3 µM (active)
same,AC50,[10],0.94 µM (active)
same,AC50,[11],5.53 µM (active)
COc1ccccc1C(=O)NNC(=O)c1ccc(NC(=O)CC(C)C)cc1,IC50,Albumin,> 94.1 µM (inactive)
Cc1cc(NC(=O)CCCN2C(=O)/C(=C/c3ccccc3Cl)SC2=S)no1,IC50,[3],> 80 µM (inactive)
O=C(Nc1cccc(Br)c1)c1ccc2c(c1)SC1=NS(=O)(=O)CCN12,AC50,Paired box protein Pax-8,3.32 µM (active)
same,IC50,[3],> 80 µM (inactive)
O=C(Nc1nc(-c2ccccn2)cs1)c1ccccc1-n1cnnn1,AC50,INS1,1.3 µM (active)
same,AC50,[8],6.96 µM (active)
same,AC50,[12],5.46 µM (active)
same,AC50,[13],2.75 µM (active)
same,IC50,H9c2,> 79 µM (inactive)
same,EC50,[14],1.93 µM (active)
same,EC50,[15],4.31 µM (active)
same,EC50,cells [16],10.6 µM (active)
same,IC50,Nonstructural protein 1,5.44 µM (active)
same,EC50,cells [17],64.3 µM (active)
same,AC50,[18],1.71 µM (active)
OCCN(CCO)CC(O)COc1ccc(C23CC4CC(CC(C4)C2)C3)cc1 (stereo not given),AC50,[11],1.05 µM (active)
same,AC50,HEK293,7.62 µM (active)
same,EC50,[19],3.11 µM (active)
